In general, Tmax refers to the time from dosing to the highest level. What is called AUC(0-inf) is the area under the concentration-time curve extrapolated to infinity. The half-life is how long it takes for the measured level to halve.

A short description of the data set: Pharmacokinetic interactions between QPD and lopinavir in rats. Type of data set: in vivo. The following applies: male, Sprague-Dawley, rat, plasma, po, 160 mg/kg.

For `Cc1cccc(C)c1OCC(=O)N[C@@H](Cc1ccccc1)[C@@H](O)C[C@H](Cc1ccccc1)NC(=O)[C@H](C(C)C)N1CCCNC1=O` [lopinavir], the Tmax was 8 h. Moreover, the AUC(0-inf) (AUC(0-inf) of lopinavir, rats, water + lopinavir 160 mg/kg i.g. (control group)) came out at 6.09 µg·h/mL. Also, the half-life (t1/2 of lopinavir, rats, water + lopinavir 160 mg/kg i.g. (control group)) is 1.9 h.

The values are drawn from PMC7816587 (Food and Chemical Toxicology, 2021).
